In PubChem BioAssay (NCI):
Several values for one entry are separate records, joined by “and”; a condition that tells them apart may be missing. Equal values may be shown once.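 96-well plates; 48 h exposure; 5 concentrations. Endpoints by linear interpolation between flanking doses. Not reached: highest tested concentration assigned. GI50 is the concentration that inhibits growth by half. TGI is the concentration that stops growth completely.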

Assays:
Assay in all cases: NCI anticancer screen, dose series, 48 h
NCI-H460 lung = test system: NCI-H460 lung
HS 578T breast = test system: HS 578T breast
SF-295 CNS = test system: SF-295 CNS
T-47D breast = test system: T-47D breast
BT-549 breast = test system: BT-549 breast
OVCAR-8 ovarian = test system: OVCAR-8 ovarian
NCI/ADR-RES ovarian = test system: NCI/ADR-RES ovarian
MCF7 breast = test system: MCF7 breast
SNB-78 CNS = test system: SNB-78 CNS
DLD-1 colon = test system: DLD-1 colon

| Compound | GI50 (NCI-H460 lung) | TGI (NCI-H460 lung) [µM] | GI50 (HS 578T breast) [µM] | TGI (HS 578T breast) [µM] | GI50 (SF-295 CNS) [µM] | TGI (SF-295 CNS) [µM] | GI50 (T-47D breast) [µM] | TGI (T-47D breast) [µM] | GI50 (BT-549 breast) | TGI (BT-549 breast) | GI50 (OVCAR-8 ovarian) | TGI (OVCAR-8 ovarian) [µM] | GI50 (NCI/ADR-RES ovarian) | TGI (NCI/ADR-RES ovarian) [µM] | GI50 (MCF7 breast) | TGI (MCF7 breast) [µM] | TGI (SNB-78 CNS) [µM] | TGI (DLD-1 colon) [µM] |
| --- | --- | --- | --- | --- | --- | --- | --- | --- | --- | --- | --- | --- | --- | --- | --- | --- | --- | --- |
| CCCCCCn1c(-c2ccc(C(=O)O/N=C(\N)c3ccc4ccccc4c3)cc2)nc(-c2ccccc2)c1-c1ccccc1 | > 100 µM | > 100 | 2.55 | > 28.7 | 11.8 | > 83.7 | 4.99 | > 100 | 8 µM | > 100 µM | > 96.3 µM | > 100 | 3.02 µM | > 100 | 4.3 µM | > 100 |  |  |
| O=C(OC1CCC2OOC1O2)c1ccc([N+](=O)[O-])cc1 (configuration not stated) |  | > 100 |  |  |  | > 100 |  |  |  |  |  | > 100 |  |  |  |  | > 100 |  |
| COCCNc1ccc2c3c(cccc13)C(=O)N(CCN(C)C)C2=O | 4.63 µM | 11.4 | 9.38 | > 25 | 6.31 | 21.1 | 4.87 | 23.8 | 10.7 µM | > 25 µM | 6.85 µM | > 25 | 8.98 µM | > 25 | 6.5 µM | 23.4 |  |  |
| CCOC(=O)NC/C=C/COC1CCCCO1 (configuration not stated) |  | > 100 |  |  |  |  |  |  |  |  |  | > 100 |  |  |  |  | > 100 | > 100 |
| COc1cc(/C(=C2/O[C@@H]([C@H]3COC(C)(C)O3)[C@H]3OC(C)(C)O[C@@H]23)c2ccc3ccccc3c2)cc(OC)c1OC | 4.1 µM | > 100 | 4.44 | 53.4 | 6.92 | 52.1 | 3.45 | 40.6 | 3.22 µM | 8.1 µM | 3.89 µM | > 100 | 4.26 µM | 22.3 | 3.59 µM | 14.4 |  |  |
| Cc1cc(C)n(-c2ccnc3cc(Cl)ccc23)n1 |  | > 100 |  |  |  | > 100 |  |  |  |  |  | > 100 |  |  |  |  | > 100 | > 100 |
| COc1cc2c(cc1OC)CC(=O)Nc1cc(OC)c(OC)cc1CC2 |  | > 100 |  |  |  | > 100 |  |  |  |  |  | > 100 |  |  |  |  | > 100 | > 100 |
| COC(=O)C1=COC(C)C2CN3CCc4c([nH]c5cc(OC)c(OC)cc45)C3CC12 (configuration not stated) | 67.1 µM and 22.4 µM | > 100 |  | > 100 |  | > 100 |  | > 100 | > 100 µM and 18.5 µM | > 100 µM and 61.6 µM | > 100 µM and 45.1 µM | > 100 | 15.1 µM and 64.2 µM | > 100 | > 100 µM and 36.4 µM | > 100 |  |  |
| CCCCNC(=O)C1C(=O)N(CCCC)C(=O)/C1=N\N (configuration not stated) |  | > 100 |  |  |  | > 100 |  |  |  |  |  | > 100 |  |  |  |  | > 100 |  |
| C#CCN(Cc1nc2cc(C(F)(F)F)ccc2nc1-c1ccccc1)c1ccc(C)cc1 | 3.93 µM | > 100 | 10.2 | > 54.4 | 4.78 | > 31.8 | 2.85 | 31.6 | 22.2 µM | 69.9 µM | 10.9 µM | > 73.9 | 4.58 µM |  | 2.38 µM | > 59.1 |  |  |
| CN1CCC2(CC1)NC(=O)c1c(c3ccc(Cl)c(Cl)c3n1C)C2C#N (configuration not stated) | 2.75 µM | 14.3 | 7.63 | 45.6 | 10 | 25.3 | 5.45 | 20.3 | 2.62 µM | 12.5 µM | 10.4 µM | 36.6 | 7.46 µM | 23 | 2.53 µM | 8.83 |  |  |
| C[C@@H](NC(=O)/C(C#N)=C/c1ccc([N+](=O)[O-])cc1)c1ccccc1 | 2.58 µM | 6.95 | 5.92 | > 32.9 | 2.25 | 5.49 | 5.53 | 26.4 | 1.75 µM | 3.55 µM | 2.87 µM | 8.05 | 3.19 µM | 13.3 | 2.41 µM | 7.65 |  |  |
| COc1ccc2c(c1)CC[C@@H]1[C@@H]2CC[C@]2(C)c3c(cc(C(=O)O)c4sccc34)C[C@@H]12 | 11.6 µM | 37.7 | 28.7 | 96.1 | 14.3 | 31.9 | 8.21 | 49 | 18.7 µM | 38.8 µM | 24.5 µM | 88.1 | 15.4 µM | 40.2 | 17.2 µM | 59 |  |  |
| Cn1nc(C(F)(F)F)cc1-c1c[nH]c(OCc2ccc(Cl)cc2)c(-c2ccc(Cl)c(C(F)(F)F)c2)c1=O | 0.944 µM | 5 | 1.07 | 3.85 | 0.887 | 2.18 | 0.803 | 3.27 | 1.04 µM | 3.31 µM | 1.19 µM | > 50 | 1.42 µM | > 50 | 1.22 µM | > 50 |  |  |
| O=c1[nH]c(=O)c2cc3cc(C4CC(O)C(CO)O4)ccc3cc2[nH]1 (configuration not stated) | > 100 µM | > 100 | > 100 | > 100 | > 100 | > 100 | > 100 | > 100 | > 100 µM | > 100 µM | > 100 µM | > 100 | > 100 µM | > 100 | > 100 µM | > 100 |  |  |
| C[C@@H]1CCC([C@@H](C)[C@H]2CC[C@H]3[C@@H]4CC[C@H]5C[C@@H](O)CC[C@]5(C)[C@H]4CC[C@]23C)=NC1 |  | 48.9 |  | > 100 |  | > 43.6 |  | > 61.9 |  | > 85 µM |  | > 100 |  | > 100 |  | > 54.8 |  |  |
| Cc1ccc2c(c1)c(Sc1ccc(C(=O)NO)cc1)c1n2CN(C)CC1 | 2.05 µM | 6.16 | 2.25 | 13 | 1.83 | 3.69 | 1.53 | 5.45 | 1.8 µM | 4.57 µM | 1.69 µM | 4.99 | 3.88 µM | 19 | 2.44 µM | 11.5 |  |  |
